Results reported in ChEMBL document CHEMBL6109078, “Pyrylium derivatives as outer membrane permeabilizers against MDR gram-negative bacteria via multi-target mode of action” (Eur J Med Chem, 2025).
Active and inactive are the calls of the source. No cut-off for these calls is given here.

How the values were obtained:
[1] = system: Escherichia coli; assay: Antibacterial activity against Escherichia coli ATCC 25922 assessed as inhibition of bacterial growth by CLSI protocol based method; format: functional
[2] = system: Escherichia coli; assay: Antibacterial activity against ESBL positive Escherichia coli ATCC 35218 assessed as inhibition of bacterial growth by CLSI protocol based method; format: functional
[3] = system: Klebsiella pneumoniae; assay: Antibacterial activity against Klebsiella pneumoniae ATCC 700603 assessed as inhibition of bacterial growth by CLSI protocol based method; format: functional
[4] = system: Pseudomonas aeruginosa; assay: Antibacterial activity Pseudomonas aeruginosa ATCC 27853 assessed as inhibition of bacterial growth by CLSI protocol based method; format: functional
[5] = system: Acinetobacter baumannii; assay: Antibacterial activity against multi-drug resistant Acinetobacter baumannii clinical isolate 5 assessed as inhibition of bacterial growth by CLSI protocol based method; format: functional
[6] = system: Acinetobacter baumannii; assay: Antibacterial activity against multi-drug resistant Acinetobacter baumannii clinical isolate 10 assessed as inhibition of bacterial growth by CLSI protocol based method; format: functional
[7] = system: Escherichia coli; assay: Antibacterial activity against Escherichia coli CG-4 expressing MCR-1 and NDM-1 assessed as inhibition of bacterial growth by CLSI protocol based method; format: functional
[8] = system: Acinetobacter baumannii; assay: Synergistic antibacterial activity against Acinetobacter baumannii ATCC 19606 assessed as inhibition of bacterial growth by measuring polymyxin B MIC by checkerboard assay; format: functional
[9] = system: Acinetobacter baumannii; assay: Synergistic antibacterial activity against multi-drug resistant Acinetobacter baumannii clinical isolate 1 assessed as inhibition of bacterial growth by measuring polymyxin B MIC by checkerboard assay; format: functional
[10] = system: Acinetobacter baumannii; assay: Synergistic antibacterial activity against multi-drug resistant Acinetobacter baumannii clinical isolate 43 assessed as inhibition of bacterial growth by measuring polymyxin B MIC by checkerboard assay; format: functional
[11] = system: Escherichia coli; assay: Synergistic antibacterial activity against Escherichia coli ATCC 35218 assessed as inhibition of bacterial growth by measuring polymyxin B MIC by checkerboard assay; format: functional
[12] = system: Escherichia coli; assay: Synergistic antibacterial activity against Escherichia coli CG-4 expressing MCR-1 and NDM-1 assessed as inhibition of bacterial growth by measuring polymyxin B MIC by checkerboard assay; format: functional
[13] = system: Acinetobacter baumannii; assay: Synergistic antibacterial activity against Acinetobacter baumannii ATCC 19606 assessed as inhibition of bacterial growth in presence of polymyxin B by checkerboard assay; format: functional
[14] = system: Acinetobacter baumannii; assay: Synergistic antibacterial activity against multi-drug resistant Acinetobacter baumannii clinical isolate 1 assessed as inhibition of bacterial growth in presence of polymyxin B by checkerboard assay; format: functional
[15] = system: Escherichia coli; assay: Synergistic antibacterial activity against Escherichia coli ATCC 35218 assessed as inhibition of bacterial growth in presence of polymyxin B by checkerboard assay; format: functional
[16] = system: Escherichia coli; assay: Synergistic antibacterial activity against Escherichia coli CG-4 expressing MCR-1 and NDM-1 assessed as inhibition of bacterial growth in presence of polymyxin B by checkerboard assay; format: functional
[17] = system: Acinetobacter baumannii; assay: Synergistic antibacterial activity against multi-drug resistant Acinetobacter baumannii clinical isolate 14 assessed as fractional inhibitory concentration index in presence of polymyxin B by checkerboard assay; format: functional
[18] = system: Escherichia coli; assay: Synergistic antibacterial activity against Escherichia coli ATCC 35218 assessed as fractional inhibitory concentration index in presence of polymyxin B by checkerboard assay; format: functional
[19] = system: Escherichia coli; assay: Synergistic antibacterial activity against Escherichia coli CG-4 expressing MCR-1 and NDM-1 assessed as fractional inhibitory concentration index in presence of polymyxin B by checkerboard assay; format: functional
[20] = system: Acinetobacter baumannii; assay: Synergistic antibacterial activity against Acinetobacter baumannii ATCC 19606 assessed as fractional inhibitory concentration index in presence of amikacin by checkerboard assay; format: functional
[21] = system: Acinetobacter baumannii; assay: Synergistic antibacterial activity against Acinetobacter baumannii ATCC 19606 assessed as fractional inhibitory concentration index in presence of gentamycin by checkerboard assay; format: functional
[22] = system: Acinetobacter baumannii; assay: Synergistic antibacterial activity against multi-drug resistant Acinetobacter baumannii clinical isolate 14 assessed as fractional inhibitory concentration index in presence of gentamycin by checkerboard assay; format: functional
[23] = system: Acinetobacter baumannii; assay: Synergistic antibacterial activity against multi-drug resistant Acinetobacter baumannii clinical isolate 1 assessed as fractional inhibitory concentration index in presence of gentamycin by checkerboard assay; format: functional
[24] = system: Acinetobacter baumannii; assay: Synergistic antibacterial activity against multi-drug resistant Acinetobacter baumannii clinical isolate 43 assessed as fractional inhibitory concentration index in presence of gentamycin by checkerboard assay; format: functional
[25] = system: Acinetobacter baumannii; assay: Antibacterial activity against Acinetobacter baumannii ATCC 19606 assessed as inhibition of bacterial growth by measuring decrease in bacterial count at 6.25 to 50 microg/ml measured after 12 hrs by time-kill kinetics analysis; format: functional; settings: dose 6.25-50 µg/ml
[26] = system: Klebsiella pneumoniae; assay: Synergistic antibacterial activity against Klebsiella pneumoniae assessed as inhibition of bacterial growth in presence of aminoglycoside by checkerboard assay; format: functional, organism-based
[27] = system: Escherichia coli; assay: Antibacterial activity against Escherichia coli ATCC 25922 assessed as bacterial killing at 100 microg/ml measured within 4 to 12 hrs by time-kill kinetics analysis; format: functional; settings: dose 100 µg/ml; time 4-12 hrs
[28] = system: Acinetobacter baumannii; assay: Antibacterial activity against Acinetobacter baumannii ATCC 19606 assessed as bacterial killing at 100 microg/ml measured within 4 to 12 hrs by time-kill kinetics analysis; format: functional; settings: dose 100 µg/ml; time 4-12 hrs
[29] = system: Escherichia coli; assay: Antibacterial activity against Escherichia coli ATCC 25922 infected in Galleria mellonella larvae assessed as survival rate at 50 microg/ml measured 96 hrs post-inoculation relative to control; format: functional
[30] = system: Escherichia coli; assay: Induction of morphological changes in Escherichia coli ATCC 25922 assessed as appearance of longer bacterial cells at 6.25 microg/ml incubated for 1 hrs by optical microscopic analysis; format: functional, organism-based; settings: dose 6.25 µg/ml
[31] = system: Escherichia coli; assay: Induction of morphological changes in Escherichia coli ATCC 25922 assessed as appearance of filamentous bacterial cells at 6.25 microg/ml incubated for 1 hrs by optical microscopic analysis; format: functional, organism-based; settings: dose 6.25 µg/ml
[32] = system: Cell membrane; assay: Induction of outer membrane damage in Escherichia coli ATCC 25922 assessed as loose outer membrane with decrease in electron cloud density at 12.5 microg/ml incubated for 1 hrs by TEM analysis; settings: dose 12.5 µg/ml
[33] = system: Cell membrane; assay: Induction of outer membrane damage in Escherichia coli ATCC 25922 assessed as local fractures at 12.5 microg/ml incubated for 1 hrs by TEM analysis; settings: dose 12.5 µg/ml
[34] = system: Cell membrane; assay: Induction of outer membrane damage in Escherichia coli ATCC 25922 assessed as accumulation of membrane-like structures near inner membrane at 12.5 microg/ml incubated for 1 hrs by TEM analysis; settings: dose 12.5 µg/ml
[35] = system: Cell membrane; assay: Disruption of outer membrane integrity in Escherichia coli ATCC 25922 assessed as increase in EtBr uptake by fluorescence plate reader analysis
[36] = system: Escherichia coli; assay: Antibacterial activity against Escherichia coli ATCC 25922 assessed as inhibition of bacterial growth by measuring fold change in MIC incubated for 16 to 18 hrs in presence of LPS; format: functional; settings: time 16-18 hrs
[37] = Binding affinity to His-tagged LptA (unknown origin) extracted from Escherichia coli BL21 (DE3) cells assessed as dissociation constant by BLI analysis; design: species or system Bacteria
[38] = Binding affinity to His-tagged LptC (unknown origin) extracted from Escherichia coli BL21 (DE3) cells assessed as dissociation constant by BLI analysis; design: species or system Bacteria
[39] = system: Bacteria; assay: Binding affinity to His-tagged LptA (unknown origin) extracted from Escherichia coli BL21 (DE3) cells by BLI analysis

SMILES | MIC [1] [µg/mL] | MIC [2] [µg/mL] | MIC [3] [µg/mL] | MIC [4] [µg/mL] | MIC [5] [µg/mL] | MIC [6] [µg/mL] | MIC [7] [µg/mL] | MIC [8] [µg/mL] | MIC [9] [µg/mL] | MIC [10] | MIC [12] [µg/mL] | MIC [13] [µg/mL] | MIC [14] [µg/mL] | MIC [15] [µg/mL] | MIC [16] [µg/mL] | fractional inhibitory concentration index (FICI) [18] | fractional inhibitory concentration index (FICI) [19] | fractional inhibitory concentration index (FICI) [20] | fractional inhibitory concentration index (FICI) [21] | fractional inhibitory concentration index (FICI) [22] | also measured
CCN(CC)c1ccc(/C=C/c2cc(C(C)(C)C)[o+]c(C(C)(C)C)c2)cc1.O=S(=O)([O-])C(F)(F)F | 6.25 | 6.25 | > 100 | > 100 | 12.5 | 12.5 | 12.5 | 0.006 | 0.2 | 1 10^-4 ug/ml | 0.78 | 0.78 | 1.56 | 1.56 | 3.13 | 0.375 | 0.375 | 0.125 | 0.125 | 0.125 | MIC ([11]; Escherichia coli, ATCC 35218, read-out: MIC): 0.013 µg/mL; fractional inhibitory concentration index (FICI) [17]: 0.141; fractional inhibitory concentration index (FICI) [23]: 0.125; fractional inhibitory concentration index (FICI) [24]: 0.125; Activity [25]: <6 log10CFU/ml; Activity [26]: inactive; Activity [27]: 100%; Activity [28]: 100%; survival at 50 µg/mL [29]: 40%; Activity [30]: Active; Activity [31]: Active; Activity [32]: Active; Activity [33]: Active; Activity [34]: Active; Activity [35]: Dose-dependent-effect; fold change (FC) [36]: 2; Kd [37]: 0.48 µM; Kd [38]: 0.49 µM; Activity [39]: Dose-dependent-effect
CC(C)(C)c1cc(/C=C/c2ccc(N3CCCC3)cc2)cc(C(C)(C)C)[o+]1.O=S(=O)([O-])C(F)(F)F | 12.5 | 6.25 | > 100 | > 100 | 6.25 | 6.25 | 6.25 | 0.002 | 1.56 | 1 10^-4 ug/ml | 0.39 | 1.56 | 3.12 | 3.13 | 0.78 | 0.375 | 0.188 | 0.125 | 0.125 | 0.125 | MIC [11]: 63 10^-4 ug/ml; fractional inhibitory concentration index (FICI) [17]: 0.313; fractional inhibitory concentration index (FICI) [23]: 0.125; fractional inhibitory concentration index (FICI) [24]: 0.125; Activity [25]: <6 log10CFU/ml; Activity [26]: inactive; Activity [27]: 100%; Activity [28]: 100%; survival at 50 µg/mL [29]: 40%; Activity [30]: Active; Activity [31]: Active; Activity [32]: Active; Activity [33]: Active; Activity [34]: Active; Activity [35]: Dose-dependent-effect; fold change (FC) [36]: 2; Kd [37]: 15 µM; Kd [38]: 63.7 µM; Activity [39]: Dose-dependent-effect
CN1CCOc2cc(/C=C/c3cc(C(C)(C)C)[o+]c(C(C)(C)C)c3)ccc21.O=S(=O)([O-])C(F)(F)F | 50 | 25 | > 100 | > 100 | 50 | 50 | 25 | 0.006 | 0.05 | 1 10^-4 ug/ml | 0.031 | 6.25 | 12.5 | 6.25 | 3.13 | 0.312 | 0.156 | 0.125 | 0.125 | 0.125 | MIC [11]: 63 10^-4 ug/ml; fractional inhibitory concentration index (FICI) [23]: 0.125; fractional inhibitory concentration index (FICI) [24]: 0.125; Activity [25]: <6 log10CFU/ml; Activity [26]: inactive; Activity [39]: inactive
